Measured values as given in PubChem BioAssay AID1053145 (Broad Institute, 2014).
Activity calls are given as the source filed them. How the calls were made is not given here.

System: HepG2 viability, CellTiter-Glo ATP luminescence, overnight
Test: HepG2 cell viability, dose response, cytotoxicity control for Trib1 inducer project, ATP luminescence, cherry-pick (AID 1053145)

SMILES	AC50
CN1C(=O)c2cc(NC(=O)c3ccc(C(F)(F)F)cc3)ccc2OC[C@@H]2O[C@@H](CC(=O)NC3Cc4ccccc4C3)CC[C@@H]21	> 25 µM (inactive)
CN1C(=O)c2cc(NC(=O)c3ccc(C(F)(F)F)cc3)ccc2OC[C@@H]2O[C@H](CC(=O)NC3Cc4ccccc4C3)CC[C@@H]21	> 25 µM (inactive)
